A short description of data set [1]: Plasma stability, human plasma. The conditions noted are these: 37° C., 1440 min, read-out: human pl. cpd left at 1440 min. In kind it is in vitro ADME. How it is done:
(§1) The stability of the peptides in human and mouse plasma was determined by applying the following method: 346.5 μL/deep well of freshly thawed human plasma (Basler Blutspende-dienst) and mouse plasma (Harlan Sera-Lab, UK), respectively, were spiked with 3.5 μL/well of compound dissolved in DMSO/H2O (90/10 [v/v], 1 mM, triplicate) and incubated at 37° C. At t=0, 15, 30, 60, 120, 240 and 1440 min aliquots of 50 μL were transferred to filtration plate wells containing 150 μL/well of 2% formic acid in acetonitrile. Following shaking for 2 min the occurred suspensions were filtrated by vacuum. 100 μL of each filtrate were transferred to a propylene microtiter plate and dried under N2. The residual solids were reconstituted by adding 100 μL/well of water/acetonitrile, 95/5 (v/v)+0.2% formic acid and analyzed by LC/MS as follows: Column: Waters, XBridge C18, mobile phases: (A) water+0.1% formic acid and (B) acetonitrile/water, 95/5 (v/v)+0.1% formic acid, gradient: 5%-100% (B) in 1.8 minutes, electrospray ionization, MRM detection (triple quadrupole). The peak areas were determined and triplicate values are averaged. The stability is expressed in percent of the initial value at t=0·(tx/t0×100). By using the TREND function of EXCEL (Microsoft Office 2003) T1/2 were determined.

Data set [2] is described as follows: Cytotoxicity, MTT reduction assay, COS-7 cells. In kind it is cell-based. The conditions noted are these: African green monkey. How it is done: (§2) Namalwa cells (CXCR4 natively expressing non-adherent cells, ATCC CRL-1432) were cultured in RPMI1640 plus 10% FBS, and pen/strept. HELA cells were maintained in RPMI1640 plus 10% FBS, pen/strept and 2 mM L-glutamine. Cos-7 cells were grown in DMEM medium with […] glucose supplemented with 10% FCS, pen/strept and 2 mM L-glutamine. All cell lines were grown at 37° C. at 5% CO2. Cell media, media supplements, PBS-buffer, HEPES, antibiotic/antimycotic, pen/strept, non essential amino acid, L-glutamine, β-mercaptoethanol and sera were purchased from Gibco (Pailsey, UK). All fine chemicals were supplied by Merck (Darmstadt, Germany).
(§3) The cytotoxicity of the peptides to HELA cells (Acc57) and COS-7 cells (CRL-1651) was determined using the MTT reduction assay (T. Mossman, J. Immunol. Meth. 1983, 65, 55-63; M. V. Berridge, A. S. Tan, Arch. Biochem. Biophys. 1993, 303, 474-482). Briefly, the method was as follows: 4000 HELA cells/well and 3400 COS-7 cells/well were seeded and grown in 96-well microtiter plates for 24 h at 37° C. at 5% CO2. Thereafter, time zero (Tz) was determined by MTT reduction (see below). The supernatant of the remaining wells was discarded, and fresh medium and compounds in serial dilutions (12.5, 25 and 50 μM, triplicates; 0 μM, blank) were pipetted into the wells. After incubation of the cells for 48 h at 37° C. at 5% CO2 the supernatant was discarded again and 100 μL MTT reagent (0.5 mg/mL in RPMI1640 and DMEM, respectively)/well was added. Following incubation at 37° C. for 2-4 h the media were aspirated and the cells were spiked (100 μL isopropanol/well). The absorbance of the solubilized formazan was measured at 595 nm (OD595peptide). For each concentration averages were calculated from triplicates. The percentage of growth was calculated as follows: (OD595peptide−OD595Tz)/(OD595blank−OD595Tz)×100%. The GI50 (Growth Inhibition) concentrations were calculated for each peptide by using a trend line function for the concentrations (50, 25, 12.5 and 0 μM), the corresponding percentages and the value 50, (=TREND (C50:C0,%50:%0,50).
On the technique in general: Tetrazolium dyes change colour on reduction, which living cells bring about.

The next data set in a line: Plasma protein binding. In kind it is in vitro ADME. The settings on record: for fraction unbound: human, plasma; for fraction unbound at 1 h, 10 μM: human plasma. As to the method:
495 μL aliquots of human plasma (Basler Blutspendedienst) as well as 495 μL aliquots of PBS were placed in individual deepwells of a polypropylene plate (Greiner) and spiked each with 5 μL of 1 mM solutions of peptides in 90% DMSO. After shaking the plate for 2 min at 600 rpm 150 μL aliquots of the plasma/peptide mixtures were transferred in triplicates to the polypropylene filter plate (10 kDa, Millipore) whereas 150 μL aliquots of the PBS/peptide mixtures were transferred either to the individual wells of the filter plate (filtered controls) or directly into the individual wells of the receiving plate (Greiner) (non-filtered controls). The plate sandwich consisting of filter and receiving plate was incubated for 1 h at 37° C. and subsequently centrifuged at 3220 g for 2 h at 15° C. The filtrates in the receiving plate were analysed by LC/MS as follows: Column: Waters, XBridge C18, mobile phases: (A) water+0.1% formic acid and (B) acetonitrile/water, 95/5 (v/v)+0.1% formic acid, gradient: 5%-100% (B) in 1.8 min, electrospray ionization, MRM detection (triple quadrupole). The peak areas were determined and triplicate values are averaged. The binding is expressed in percent of the filtered and non-filtered controls by 100−(100×T1h/Tctr). Finally the average of these values is calculated.

The nature of data set [3]: Plasma stability, mouse plasma. The conditions noted are these: 37° C.; for remaining at 24 h / remaining at 24 h, 10 μM: 1440 min, read-out: mouse pl. cpd left at 1440 min; for mouse pl. T1/2: up to 1440 min. Type of data set: in vitro ADME. How it is done:
as §1

A short description of data set [4]: Cytotoxicity, MTT reduction assay, HELA cells. The conditions noted are these: human. Type of data set: cell-based. How it is done: as §2, §3
Where [5] appears, read: ultrafiltration 10 kDa, read-out: Plasma protein binding (converted).
[6] abbreviates: MTT, 48 h, up to 50 μM, read-out: Cytotoxicity Cos-7 Cells GI50.
Where [7] appears, read: MTT, 48 h, up to 50 μM, read-out: Cytotoxicity Hela Cells GI50.

Structures are written as SMILES. Read-outs that look alike come from different tables or passages of the source. Bridge positions count the residues as written; N and C are the ends. Square brackets hold non-standard residues; d marks the D form. Peptide text beside a SMILES is read from it. Lys(iPr) = CC(C)NCCCC[C@H](N)C(=O)O; Orn(iPr) = CC(C)NCCC[C@H](N)C(=O)O; Dab = NCC[C@H](N)C(=O)O

As for `CC(C)NCCCC[C@@H]1NC(=O)[C@H](CCC(N)=O)NC(=O)[C@H](Cc2ccc(O)cc2)NC(=O)[C@@H]2CSSC[C@H](NC(=O)[C@H](Cc3ccc(O)cc3)NC(=O)[C@H](Cc3c[nH]cn3)NC(=O)[C@H](Cc3ccc(O)cc3)NC(=O)[C@@H]3CCCN3C(=O)[C@H]3CCCN3C1=O)C(=O)N[C@@H](CO)C(=O)N[C@@H](C)C(=O)N1CCC[C@@H]1C(=O)N[C@@H](CCCNC(C)C)C(=O)N[C@@H](CCCNC(=N)N)C(=O)N[C@@H](Cc1ccc(O)cc1)C(=O)N2` [Ex. 1, cyclo(-Tyr^1-His^2-Tyr^3-Cys^4-Ser^5-Ala^6-^DPro^7-Orn(iPr)^8-Arg^9-Tyr^10-Cys^11-Tyr^12-Gln^13-Lys(iPr)^14-^DPro^15-Pro^16-) disulfide bond between Cys^4 and Cys^11] (cyclo(YHYCSA[dP][Orn(iPr)]RYCYQ[Lys(iPr)][dP]P); disulfide 4-11), the remaining at 24 h came out at 77% in data set [1] and 100% in data set [3]. The GI50 at 48 h in data set [2] and in data set [4] was greater than 50 µM throughout. The fraction unbound in “Plasma protein binding” (read-out: Fraction unbound, fu) is 0.7; in the data set “Plasma protein binding” (setting [5]) it was 0.7. Further, in data set [3], the “mouse pl. T1/2” value was determined as 24 h.
Turning to `COc1ccc(C[C@H]2NC(=O)[C@H](C)NC(=O)[C@H](CO)NC(=O)[C@@H]3CSSC[C@H](NC(=O)[C@H](Cc4ccc(O)cc4)NC(=O)[C@H](CCCNC(=N)N)NC(=O)[C@H](CCCNC(C)C)NC2=O)C(=O)N[C@@H](Cc2ccc(O)cc2)C(=O)N[C@@H](CCC(N)=O)C(=O)N[C@@H](CCCCNC(C)C)C(=O)N2CCC[C@@H]2C(=O)N2CCC[C@H]2C(=O)N[C@@H](Cc2ccc(O)cc2)C(=O)N[C@@H](Cc2c[nH]cn2)C(=O)N[C@@H](C)C(=O)N3)cc1` [Ex. 4, cyclo(-Tyr^1-His^2-Ala^3-Cys^4-Ser^5-Ala^6-^DTyr(Me)^7-Orn(iPr)^8-Arg^9-Tyr^10-Cys^11-Tyr^12-Gln^13-Lys(iPr)^14-^DPro^15-Pro^16-), disulfide bond between Cys^4 and Cys^11] (cyclo(YHACSA[dY](Me)[Orn(iPr)]RYCYQ[Lys(iPr)][dP]P); disulfide 4-11), the results for the remaining at 24 h in data set [1] and in data set [3] were 94% and 60%, respectively. For the same molecule, the GI50 at 48 h in data set [2] and in data set [4] was greater than 50 µM in each case. In addition, the fraction unbound in the data set “Plasma protein binding” (read-out: Fraction unbound, fu) is 0.44; in the data set “Plasma protein binding” (setting [5]), 0.44. The “mouse pl. T1/2” value in data set [3] was 24 h.
Take `COc1ccc(C[C@@H]2NC(=O)[C@H](Cc3c[nH]cn3)NC(=O)[C@H](Cc3ccc(O)cc3)NC(=O)[C@@H]3CCCN3C(=O)[C@H]3CCCN3C(=O)[C@H](CCCCNC(C)C)NC(=O)[C@H](CCC(N)=O)NC(=O)[C@H](Cc3ccc(O)cc3)NC(=O)[C@@H]3CSSC[C@H](NC2=O)C(=O)N[C@@H](CO)C(=O)N[C@@H](C)C(=O)N[C@H](Cc2ccc(OC)cc2)C(=O)N[C@@H](CCCNC(C)C)C(=O)N[C@@H](CCCNC(=N)N)C(=O)N[C@@H](Cc2ccc(O)cc2)C(=O)N3)cc1` [Ex. 6, cyclo(-Tyr^1-His^2-Tyr(Me)^3-Cys^4-Ser^5-Ala^6-^DTyr(Me)^7-Orn(iPr)^8-Arg^9-Tyr^10-Cys^11-Tyr^12-Gln^13-Lys(iPr)^14-^DPro^15-Pro^16-), disulfide bond between Cys^4 and Cys^11] (cyclo(YHY(Me)CSA[dY](Me)[Orn(iPr)]RYCYQ[Lys(iPr)][dP]P); disulfide 4-11): the remaining at 24 h, 10 μM in data set [1] amounted to 83%; in data set [3], 68%. The GI50 at 48 h in data set [2] (setting [6]) and in data set [4] (setting [7]) was greater than 50 µM each time. In addition, the fraction unbound at 1 h, 10 μM in “Plasma protein binding” (ultrafiltration 10 kDa) was 0.37. Further, the “mouse pl. T1/2” value in data set [3] stood at 24 h.
Turning to `CC(C)NCCCC[C@@H]1NC(=O)[C@H](CCC(N)=O)NC(=O)[C@H](Cc2ccc(O)cc2)NC(=O)[C@@H]2CSSC[C@H](NC(=O)[C@H](Cc3ccc(O)cc3)NC(=O)[C@H](Cc3c[nH]cn3)NC(=O)[C@H](Cc3ccc(O)cc3)NC(=O)[C@@H]3CCCN3C(=O)[C@H]3CCCN3C1=O)C(=O)N[C@@H](CO)C(=O)N[C@@H](C)C(=O)N[C@H](Cc1ccc(O)cc1)C(=O)N[C@@H](CCCNC(C)C)C(=O)N[C@@H](CCCNC(=N)N)C(=O)N[C@@H](Cc1ccc(O)cc1)C(=O)N2` [Ex. 5, cyclo(-Tyr^1-His^2-Tyr^3-Cys^4-Ser^5-Ala^6-^DTyr^7-Orn(iPr)^8-Arg^9-Tyr^10-Cys^11-Tyr^12-Gln^13-Lys(iPr)^14-^DPro^15-Pro^16-), disulfide bond between Cys^4 and Cys^11] (cyclo(YHYCSA[dY][Orn(iPr)]RYCYQ[Lys(iPr)][dP]P); disulfide 4-11), the remaining at 24 h, 10 μM in data set [1] was determined as 92%; in data set [3], 81%. Further, the GI50 at 48 h in data set [2] (setting [6]) and in data set [4] (setting [7]) was greater than 50 µM in each case. In “Plasma protein binding” (ultrafiltration 10 kDa), the fraction unbound at 1 h, 10 μM was 0.46. The “mouse pl. T1/2” value in data set [3] is 24 h.
Turning to `CC(C)NCCCC[C@@H]1NC(=O)[C@H](CCC(N)=O)NC(=O)[C@H](Cc2ccc(O)cc2)NC(=O)[C@@H]2CSSC[C@H](NC(=O)[C@H](C)NC(=O)[C@H](Cc3c[nH]cn3)NC(=O)[C@H](Cc3ccc(O)cc3)NC(=O)[C@@H]3CCCN3C(=O)[C@H]3CCCN3C1=O)C(=O)N[C@@H](CO)C(=O)N[C@@H](C)C(=O)N[C@H](Cc1ccc(O)cc1)C(=O)N[C@@H](CCN)C(=O)N[C@@H](CCCNC(=N)N)C(=O)N[C@@H](Cc1ccc(O)cc1)C(=O)N2` [Ex. 3, cyclo(-Tyr^1-His^2-Ala^3-Cys^4-Ser^5-Ala^6-^DTyr^7-Dab^8-Arg^9-Tyr^10-Cys^11-Tyr^12-Gln^13-Lys(iPr)^14-^DPro^15-Pro^16-), disulfide bond between Cys^4 and Cys^11] (cyclo(YHACSA[dY][Dab]RYCYQ[Lys(iPr)][dP]P); disulfide 4-11), the remaining at 24 h, 10 μM in data set [1] amounted to 100%; in data set [3], 98%. The GI50 at 48 h in data set [2] (setting [6]) and in data set [4] (setting [7]) was greater than 50 µM each time. The fraction unbound at 1 h, 10 μM in “Plasma protein binding” (ultrafiltration 10 kDa) is 0.52. In addition, the “mouse pl. T1/2” value in data set [3] was 24 h.

As usually defined, the GI50 is the concentration that inhibits growth by half.

The values above are taken from patent US9556231B2, “Beta-hairpin peptidomimetics as CXC4 antagonists” (POLYPHOR AG, priority 2011, dated 2017).
